Data published in US20210395256A1, “TYROSINE KINASE INHIBITORS, COMPOSITIONS AND METHODS THERE OF” (Betta Pharmaceuticals Co., Ltd., priority 2018, published 2021).
Like-named read-outs stand apart in the source and are kept apart here.

Assays:
[1] = Plasma protein binding (equilibrium dialysis), human; type: in vitro ADME; details: pH 7.4, human plasma, 1 μM, 6 hours dialysis; for fraction unbound at 6 h, 1 μM: read-out: Mean % Bound Human (converted)
Method: (§1) Example 204 Plasma Protein Binding Measurements
(§2) The plasma protein binding was measured as the following procedure.
(§3) 1) Preparation of 100 mM sodium phosphate and 150 mM NaCl buffer (PBS)
(§4) A basic solution was prepared by dissolving 14.2 g/L Na2HPO4 and 8.77 g/L NaCl in deionized water and the solution could be stored at 4° C. for up to 7 days. An acidic solution was prepared by dissolving 12.0 g/L NaH2PO4 and 8.77 g/L NaCl in deionized water and the solution could be stored at 4° C. for up to 7 days. The basic solution was titrated with the acidic solution to pH 7.4 and store at 4° C. for up to 7 days. pH was checked on the day of experiment and was adjusted if outside specification of 7.4±0.1.
(§5) Frozen plasma was thawed immediately at room temperature.
(§6) The plasma was centrifuged at 3,220 g for 10 minutes to remove clots and supernatant was collected into a fresh tube. The pH of the plasma was checked and recorded.
(§7) Note: a). Only use plasma that has been thawed no more than twice since arrival. b). Only use plasma within the range of pH 7 to pH 8.
(§8) 3) Preparation of working solutions
(§9) The working solutions of test compounds and control compound ketoconazole were prepared in DMSO at the concentration of 200 μM. And then 3 μL of working solution was removed to mix with 597 μL of human, rat or mouse plasma to achieve a final concentration of 1 μM (0.5% DMSO). Plasma samples were vortexed thoroughly.
(§10) 4) Preparation of dialysis membranes
(§11) The dialysis membranes were soaked in ultrapure water for 60 minutes to separate strips, then in 20% ethanol for 20 minutes, finally in dialysis buffer for 20 minutes.
(§12) 5) Procedure for equilibrium dialysis
(§13) The dialysis apparatus was assembled according to the manufacturer's instruction. Each cell was filled with 120 μL of plasma sample and dialyzed against equal volume of dialysis buffer (PBS). The assay was performed in duplicate. The dialysis plate was sealed and incubated in an incubator at 37° C. with 5% CO2 at 100 rpm for 6 hours. At the end of incubation, seal was removed and 50 μL of samples from both buffer and plasma chambers were transferred to wells of a 96-well plate.
(§14) 6) Procedure for sample analysis
(§15) 50 μL of blank plasma was added to each buffer samples and an equal volume of PBS was supplemented to the collected plasma sample. 300 μL of room temperature quench solution (acetonitrile containing internal standards (1S, 100 nM Alprazolam, 500 nM Labetalol and 2 μM Ketoprofen)) was added to precipitate protein. Samples in plate were vortexed for 5 minutes and centrifuged at 3,220 g for 30 minutes at 4° C. And then 100 μL of the supernatant was transferred to a new 96-well plate with 100 μL or 200 μL water (depends on the LC-MS signal response and peak shape) for LC-MS/MS analysis.
(§16) Calculate the percentages of test compound and control compound bound as follows:
(§17) % Free=(Peak Area Ratiobuffer chamber/Peak Area Ratioplasma chamber)*100
(§18) % Recovery=(Peak Area Ratiobuffer chamber+Peak Area Ratioplasma chamber)/Peak Area Ratio total sample*100
(§19) Peak Area Ratiobuffer chamber means the conc for free fraction
(§20) Peak Area Ratioplasma chamber means the conc for both free and bound fraction
(§21) Peak Area Ratiototal sample means the conc for starting sample before incubation

[2] = Plasma protein binding (equilibrium dialysis), mouse; type: in vitro ADME; details: pH 7.4, 6 hours dialysis; for fraction unbound at 6 h, 1 μM: read-out: Mean % Bound Mouse (converted)
Method: as §1, §2, §3, §4, §5, §6, §7, §8, §9, §10, §11, §12, §13, §14, §15, §16, §17, §18, §19, §20, §21

TrkA kinase = TrkA kinase (Homo sapiens, UniProt P04629); assay: TrkA kinase assay (mobility shift assay); type: biochemical; details: read-out: Trk A Kinase IC50
TrkA kinase, sequence (P04629 33-796): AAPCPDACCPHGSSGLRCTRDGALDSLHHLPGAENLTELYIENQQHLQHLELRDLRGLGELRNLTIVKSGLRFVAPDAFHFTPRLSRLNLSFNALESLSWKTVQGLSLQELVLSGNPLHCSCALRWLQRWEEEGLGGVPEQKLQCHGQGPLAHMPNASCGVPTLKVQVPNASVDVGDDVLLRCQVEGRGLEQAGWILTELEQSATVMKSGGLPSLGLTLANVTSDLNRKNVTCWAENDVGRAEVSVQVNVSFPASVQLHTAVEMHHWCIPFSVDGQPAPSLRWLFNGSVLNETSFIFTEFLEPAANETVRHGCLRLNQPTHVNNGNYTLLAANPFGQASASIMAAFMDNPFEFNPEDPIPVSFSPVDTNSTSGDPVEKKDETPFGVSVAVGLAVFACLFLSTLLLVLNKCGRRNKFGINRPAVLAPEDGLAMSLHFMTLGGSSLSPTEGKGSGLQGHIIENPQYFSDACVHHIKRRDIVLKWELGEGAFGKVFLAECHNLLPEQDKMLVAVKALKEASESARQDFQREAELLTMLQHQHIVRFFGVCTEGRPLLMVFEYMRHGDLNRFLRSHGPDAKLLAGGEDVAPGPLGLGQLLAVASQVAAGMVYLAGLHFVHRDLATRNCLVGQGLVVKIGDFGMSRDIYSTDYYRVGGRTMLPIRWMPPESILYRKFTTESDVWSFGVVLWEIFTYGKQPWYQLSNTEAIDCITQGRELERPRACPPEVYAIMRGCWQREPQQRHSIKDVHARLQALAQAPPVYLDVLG
In short: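 Ten-point compound series was preincubated 10 min at room temperature with TrkA, then FAM-peptide plus ATP added in HEPES pH 7.5/Brij-35 buffer and reacted at 28 °C before EDTA quench.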

[3] = Plasma protein binding (equilibrium dialysis), rat; type: in vitro ADME; details: pH 7.4, 6 hours dialysis; for fraction unbound at 6 h, 1 μM: read-out: Mean % Bound Rat (converted)
Method: as §1, §2, §3, §4, §5, §6, §7, §8, §9, §10, §11, §12, §13, §14, §15, §16, §17, §18, §19, §20, §21

Ba/F3-TPM3-NTRK1 = target: T1, Ba/F3-TPM3-NTRK1 (Homo sapiens, UniProt P04629); assay: Ba/F3-TPM3-NTRK1 cells proliferation assay; type: cell-based; details: 72 h, CellTiter Glo
T1 construct: expressed in transfected cells; host or cells: Ba/F3; the other entry of the earlier key: TPM3 (P06753, Tropomyosin alpha-3 chain)
T1 sequence (P04629 510-796 limits assumed): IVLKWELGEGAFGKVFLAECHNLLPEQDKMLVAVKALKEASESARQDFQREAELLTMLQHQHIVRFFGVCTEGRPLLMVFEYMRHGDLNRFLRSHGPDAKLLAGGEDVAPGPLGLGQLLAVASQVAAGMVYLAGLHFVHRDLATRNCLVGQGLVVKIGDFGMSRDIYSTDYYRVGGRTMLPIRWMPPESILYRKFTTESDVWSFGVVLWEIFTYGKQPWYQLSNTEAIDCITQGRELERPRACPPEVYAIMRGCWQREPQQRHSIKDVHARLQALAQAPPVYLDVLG
Method: Example 202 Ba/F3-TPM3-NTRK1 and Ba/F3-ETV6-NTRK3 cells proliferation assay
Cell line: Ba/F3 cells with TPM3-NTRK1 or ETV6-NTRK3 fusion mutation gene stably overexpressed named Ba/F3-TPM3-NTRK1 and Ba/F3-ETV6-NTRK3.
RPMI 1640 and 10% FBS and 1% PS and 2 ug/mL puromycin.
b) Collect cell to a 15 mL centrifuged tube, centrifuge at 1000 rpm for 5 min. Discard the supernatant, count, and make the cell density at 1.49×10^4 cells/mL, then place it in a 37° C., 5% CO2 incubator.
a) The test compound (20 mM stock solution) was diluted to 60 μM with 100% DMSO as starting concentration then 3-fold serial diluted with “9+0” concentrations. in a 96-well dilution plate (Thermo, Cat. No. 249944);
b) The above compound solution was diluted 1:20 times with culture medium to prepare a 10 fold working solution;
a) Take cells in log phase growth, centrifuge at 1000 rpm for 5 min, then resuspend the cells with culture medium, then count cells;
b) Cells were seeded to 96-well cell culture plate with density at 2000 cells/well;
a) Compounds prepared at step 2 were added to cell plate with 15 μL per well, the final concentrations were 300, 100, 33.33, 11.11, 3.70, 1.23, 0.41, 0.14, 0.05 and 0 nM, and the final concentration of DMSO was 0.5%. The blank control well was a culture medium (0.5% DMSO);
c) The cells were incubated for an additional 72 h in the incubator.
a) Remove the 96-well cell culture plate and add 50 μl of CTG reagent (CellTiter Glo kit, promega, Cat #G7573).
b) Plate was shaked for 2 min and then let it cool for 30 min at room temperature.
c) The Luminescence signal value was read using a PerkinElmer reader.
Experimental Data Analysis
Data were analyzed using GraphPad Prism 6.0 software to obtain a fitted curve of compound activity.
Fit the Compound IC50 from non-linear regression equation:
Y=Bottom+(Top-Bottom)/(1+10^((Log IC50-X)×HillSlope));
X: The log of the concentration of the compound; Y: Luminescence value.

NTRK1-G595R = NTRK1-G595R (Homo sapiens, UniProt P04629, G595R); assay: NTRK1-G595R cell proliferation assay (Table 13); type: cell-based
NTRK1-G595R, sequence (P04629 33-796 G595R): as the sequence (P04629 33-796) above, with G563R counted along it

[4] = Liver microsomes metabolic stability assay, human; type: in vitro ADME; details: human liver microsomes 0.5 mg/mL, 37° C.; for half-life at 2 μM: read-out: t1/2 Human
Method: (§22) Example 203 Liver Microsomes Metabolic Stability Assay
(§23) Pooled human liver microsomes (Cat. 452117) were purchased from Corning. Pooled male rat liver microsomes (Cat. R1000) and pooled male mouse liver microsomes (Cat. M1000) were purchased from XENOTECH. Microsomes were stored at −80° C.
(§24) 1) Make a master solution containing phosphate buffer, ultra-pure H2O and MgCl2 solution according to Table 14.
(§25) 2) Two separated experiments were performed as follows.
(§26) a) With NADPH: 10 μL of 20 mg/mL liver microsomes and 40 μL of 10 mM NADPH were added to the incubations. The final concentrations of microsomes and NADPH were 0.5 mg/mL and 1 mM, respectively.
(§27) b) Without NADPH: 10 μL of 20 mg/mL liver microsomes and 40 μL of ultra-pure H2O were added to the incubations. The final concentration of microsomes was 0.5 mg/mL.
(§28) 3) The reaction was started with the addition of 4 μL test compounds solutions or control compound solution (verapamil) at the final concentration of 2 μM and carried out at 37° C.
(§29) 4) Aliquots of 50 μL were taken from the reaction solution at 0, 15, 30, 45 and 60 min. The reaction solutions were stopped by the addition of 4 volumes of cold acetonitrile with 1S (100 nM alprazolam, 200 nM caffeine, 200 nM labetalol and 2 μM ketoprofen). Samples were centrifuged at 3,220 g for 40 minutes. Aliquot of 100 μL of the supernatant was mixed with 100 μL of ultra-pure H2O and then used for LC-MS/MS analysis. All experiments were performed in duplicate.
(§30) The slope value, k, was determined by linear regression of the natural logarithm of the remaining percentage of the parent drug vs. incubation time curve.
(§31) The in vitro half-life (in vitro t1/2) was determined from the slope value:
(§32) Conversion of the in vitro t1/2 (in min) into the in vitro intrinsic clearance (in vitro CLint, in μL/min/mg proteins) was done using the following equation (mean of duplicate determinations): […]
(§33) The control compound (verapamil) was included in the assay. Any value of the compounds that was not within the specified limits will be rejected and the experiment will be repeated.

[5] = Liver microsomes metabolic stability assay, rat; type: in vitro ADME; details: male, rat liver microsomes 0.5 mg/mL, 37° C.; for half-life at 2 μM: read-out: t1/2 Rat
Method: as §22, §23, §24, §25, §26, §27, §28, §29, §30, §31, §32, §33

[6] = Liver microsomes metabolic stability assay, mouse; type: in vitro ADME; details: male, mouse liver microsomes 0.5 mg/mL, 37° C.; for half-life at 2 μM: read-out: t1/2 Mouse
Method: as §22, §23, §24, §25, §26, §27, §28, §29, §30, §31, §32, §33

Row | Structure (SMILES) | recovery at 6 h, 1 μM [1] [%] | fraction unbound at 6 h, 1 μM [1] | recovery at 6 h, 1 μM [2] [%] | fraction unbound at 6 h, 1 μM [2] | IC50 (TrkA kinase; numeric values) [nM] | recovery at 6 h, 1 μM [3] [%] | fraction unbound at 6 h, 1 μM [3] | IC50 (Ba/F3-TPM3-NTRK1) [nM] | IC50 (NTRK1-G595R) [nM] | microsomal CLint at 2 μM [4] [µL/min/mg] | half-life at 2 μM [4] [min] | microsomal CLint at 2 μM [5] [µL/min/mg] | half-life at 2 μM [5] [min] | microsomal CLint at 2 μM [6] [µL/min/mg] | half-life at 2 μM [6] [min] | IC50 (TrkA kinase; class symbols) [nM]
1 | NC1(c2nnc(-c3cnn4ccc(N5CCC[C@@H]5c5cc(F)ccc5F)nc34)[nH]2)CCC1 [Compound 24, (R)-1-(5-(5-(2-(2,5-difluorophenyl)pyrrolidin-1-yl)pyrazolo[1,5-a]pyrimidin-3-yl)-4H-1,2,4-triazol-3-yl)cyclobutan-1-amine] | 85.9 | 0.126 | 86.5 | 0.0817 | 11.8 | 82.5 | 0.164 | – | – | – | – | – | – | – | – | –
2 | C[C@@H](O)c1nnc(-c2cnn3ccc(N4CCC[C@@H]4c4cc(F)ccc4F)nc23)[nH]1 [Compound 34, (R)-1-(5-(5-((R)-2-(2,5-difluorophenyl)pyrrolidin-1-yl)pyrazolo[1,5-a]pyrimidin-3-yl)-4H-1,2,4-triazol-3-yl)ethan-1-ol] | 91.7 | 0.0868 | 98.6 | 0.0918 | 0.71 | 92.4 | 0.109 | 3.33 | – | – | – | – | – | – | – | –
3 | OCc1cc2nc(-c3cnn4ccc(N5CCC[C@@H]5c5cc(F)ccc5F)nc34)oc2cc1F [Compound 94, (R)-(2-(5-(2-(2,5-difluorophenyl)pyrrolidin-1-yl)pyrazolo[1,5-a]pyrimidin-3-yl)-6-fluorobenzo[d]oxazol-5-yl)methanol] | – | – | – | – | 0.79 | – | – | 1.38 | 62.9 | – | – | – | – | – | – | –
4 | COCCOc1cc2nc(-c3cnn4ccc(N5CCC[C@@H]5c5cc(F)ccc5F)nc34)[nH]c2cc1OCCOC [Compound 101, (R)-3-(5,6-bis(2-methoxyethoxy)-1H-benzo[d]imidazol-2-yl)-5-(2-(2,5-difluorophenyl)pyrrolidin-1-yl)pyrazolo[1,5-a]pyrimidine] | – | – | – | – | 0.4 | – | – | 0.28 | 165 | 49.4 | 28.1 | 105 | 13.2 | 103 | 13.5 | –
5 | N#Cc1cc2[nH]c(-c3cnn4ccc(N5CCC[C@@H]5c5cc(F)ccc5F)nc34)nc2cc1F [Compound 123, (R)-2-(5-(2-(2,5-difluorophenyl)pyrrolidin-1-yl)pyrazolo[1,5-a]pyrimidin-3-yl)-5-fluoro-1H-benzo[d]imidazole-6-carbonitrile] | – | – | – | – | – | – | – | 1.9 | 117 | 94.1 | 14.7 | 60.8 | 22.8 | 39 | 35.5 | ≤ 10
6 | CN(C)c1cc2[nH]c(-c3cnn4ccc(N5CCC[C@@H]5c5cc(F)ccc5F)nc34)nc2cc1C#N [Compound 144, (R)-2-(5-(2-(2,5-difluorophenyl)pyrrolidin-1-yl)pyrazolo[1,5-a]pyrimidin-3-yl)-6-(dimethylamino)-1H-benzo[d]imidazole-5-carbonitrile] | – | – | – | – | 1.1 | – | – | 3.39 | 221 | – | – | – | – | – | – | –
7 | Fc1ccc(F)c([C@H]2CCCN2c2ccn3ncc(-c4nc5cc(CN6CCOCC6)ccc5[nH]4)c3n2)c1 [Compound 162, (R)-4-((2-(5-(2-(2,5-difluorophenyl)pyrrolidin-1-yl)pyrazolo[1,5-a]pyrimidin-3-yl)-1H-benzo[d]imidazol-5-yl)methyl)morpholine] | – | – | – | – | 0.6 | – | – | 1.33 | 119 | – | – | – | – | – | – | –
